“Also recorded” adds a separate entry of the source. Read-outs that look alike come from different tables or passages of the source.
Tests used:
C57Bl/6 mice [1] = assay: Pruritogen-evoked hind paw scratching counted by the paw motion detector (PMD) in mice; format: in vivo; details: mouse; for scratching behavior evoked by the pruritogen: injection to dorsolateral neck, ipsilateral paw, 60 min; for dose response of scratching: histamine 0.111-11.1 g/mL, chloroquine 0.1-2 mg/mL, 48/80 0.125-0.5 mg/mL
Excerpt: Data acquisition is then initiated. […] The PMD detects the movement of a non-ferrous metal band placed around one hind paw of the rodent (for the mouse the band weight=0.1 g while for the rat the band weight=0.5 g). There are two distinct bands one for the rat and one for the mouse (see the band in Yaksh et al., 2001). The testing apparatus consists of cylindrical chambers (mouse: 8.5 cm diameter/22.5 cm tall; rat: 15 cm diameter/30 cm tall). Under each cylinder is a pair of circular concentric electromagnetic coils, which serve respectively as antennas for transmission and reception. […] The transmitter coil assembly is constructed to emit a 5-8 mW, 6-8 kHz, sinusoidal electromagnetic field (Blue Max 800 Precision scan search coil White's Electronics, Inc., OR). The detection principal is that Eddy currents created by the movements of the ferrous and nonferrous metals perturb the EM field. Such perturbations produce an output waveform and are subsequently detected (Yaksh et al., 2001). The analog signal from the sensing coil assembly is fed into a standard National Instruments based signal acquisition A-D converter system ([…] or PCI-MI0-16Xe-10 National Instruments Corp.) driven into a standard LabView based software (Lab view v.5.1 National Instruments Corporation, Austin, Tex.). The signal is filtered, amplified, and digitized (sampling rate of 1000 Hz, 12-bit resolution). This signal (conditioned signal in FIG. 2) is then entered and passed through a two component-triggering algorithm configured in the Lab view program. In the first phase, the processed signal is sent through an algorithm to establish a scratch movement trigger. In this phase, the processed signal is subjected to a “zero-crossing interval-peak height” analysis based on the signal amplitude in a sliding time window (see Yaksh et al., 2001). The range of voltages (1-0.01 V) over a moving 128-ms interval is configured to produce a continuous output waveform. […] The signal is then smoothed by using a non-weighted moving average filter. The smoothed range waveform is examined in real time by a peak-detection algorithm set to pick out spikes of >500 ms and amplitudes of >0.3 V. Each peak provided a trigger signal, which is represented by a red line on the automated system's display, see FIG. 3. The signal is then processed through a second level algorithm to define bursting. A high frequency scratching burst, which we will now call a microburst, is defined as multiple trigger signals occurring within a specified moving window time frame (e.g. 2 trigger signals within a 1.15 s time frame) without double counting trigger signals. […] Paw movement events meeting the criteria of a scratch microburst are captured and summed at 1-min increments by default (and can be summed from 1 s to 60 min increments). Summed data are stored in Microsoft Excel compatible spreadsheets.

Holtzman rats = assay: SQ 48/80-evoked homolateral scratching in the rat (PMD, Example 2); format: in vivo; details: diphenhydramine 1 mg/kg IP with SQ 48/80
Excerpt: Data acquisition is then initiated.
The PMD detects the movement of a non-ferrous metal band placed around one hind paw of the rodent (for the mouse the band weight=0.1 g while for the rat the band weight=0.5 g). There are two distinct bands one for the rat and one for the mouse (see the band in Yaksh et al., 2001). The testing apparatus consists of cylindrical chambers (mouse: 8.5 cm diameter/22.5 cm tall; rat: 15 cm diameter/30 cm tall). Under each cylinder is a pair of circular concentric electromagnetic coils, which serve respectively as antennas for transmission and reception. Outer coil diameters for the mouse and rat are 12 cm and 20 cm, respectively. The transmitter coil assembly is constructed to emit a 5-8 mW, 6-8 kHz, sinusoidal electromagnetic field (Blue Max 800 Precision scan search coil White's Electronics, Inc., OR). The detection principal is that Eddy currents created by the movements of the ferrous and nonferrous metals perturb the EM field. Such perturbations produce an output waveform and are subsequently detected (Yaksh et al., 2001).

C57Bl/6 mice [2] = details: mouse; for effect on chloroquine (1 mg/mL) evoked scratching: diphenhydramine 1 mg/kg IP

## CCN(CC)CCCC(C)Nc1ccnc2cc(Cl)ccc12 (stereo not drawn) [chloroquine]
C57Bl/6 mice [1]; 1 hour, SQ 48/80 0.5 mg/mL vs chloroquine 1 mg/mL, N=5, p<0.001
  cumulative macroburst counts, 48/80 vs chloroquine: significantly different
C57Bl/6 mice [1]
  scratching behavior evoked by the pruritogen: vigorous scratching; also recorded: significant scratching incidence
  dose response of scratching: inverse u shape dose response curve
C57Bl/6 mice [1]; over 1 hour after SQ 48/80 0.5 mg/mL or chloroquine 1 mg/mL, N=5, FFT transformed
  average macrobursts: 8.4
C57Bl/6 mice [1]; listed as Chloroquine
  dose response of scratching: inverse U shaped dose response curve; also recorded: inverse u-shaped dose response curve

## CN(C)CCOC(c1ccccc1)c1ccccc1 [diphenhydramine, Diphenhydramine]
Holtzman rats
  effect on 48/80-evoked scratching: significant reduction in the observed magnitude of scratching
C57Bl/6 mice [2]; diphenhydramine 0.1 mg/kg IP, 30 min pretreatment, SQ 48/80 0.5 mg/mL
  effect on scratching produced by 48/80: complete reversal of scratching
C57Bl/6 mice [2]; 30 min pretreatment
  effect on chloroquine (1 mg/mL) evoked scratching: lower mean microburst count than those treated with chloroquine alone, but this was not statistically significant
C57Bl/6 mice [2]; 30 min pretreatment, listed as Diphenhydramine
  effect on chloroquine (1 mg/mL) evoked scratching: no statistically significant effect
C57Bl/6 mice [2]; diphenhydramine, dose not stated
  effect on SQ histamine-evoked scratching: reversed
C57Bl/6 mice [2]; higher doses of diphenhydramine (0.3, 1 mg/kg IP)
  effect on scratching produced by 48/80: suppression of behavior as compared to saline treated animals
C57Bl/6 mice [2]; increasing doses of IP diphenhydramine
  effect on 48/80-evoked scratching, across doses: attenuated in an equally dose dependent fashion; also recorded: reversed

## Cl.Cl.NCCc1c[nH]cn1 [histamine, Histamine dihydrochloride]
C57Bl/6 mice [1]
  scratching behavior evoked by the pruritogen: vigorous scratching
C57Bl/6 mice [1]; dihydrochloride
  dose response of scratching: robust dose dependent scratching

## CCN(CC)CC(=O)Nc1c(C)cccc1C [lidocaine]
C57Bl/6 mice [2]; SQ lidocaine 2.5% injected into the site 5 min prior to histamine
  effect on histamine-evoked scratching: blocked the scratching behavior
